From patent US20250346597A1, “CONDENSED HETEROCYCLIC COMPOUNDS AS INHIBITOR OF DIACYLGLYCEROL KINASES” (BEONE MEDICINES I GMBH, priority 2023, published 2025)

Experiments:
DGKζ = DGKζ (Homo sapiens (Human), UniProt Q13574); assay: Biochemical DGK IC50 assay (ADP-Glo, lipid micelle substrate), DGKζ; conditions: full length DGKζ 0.5 nM, ATP 140 μM, DAG 80 μM
Summary of the method: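 ADP-Glo luminescence measured ADP made in a 1 h room-temperature reaction. The enzyme was Sf9-expressed, purified full-length human DGKζ, and the substrate was DAG/PS micelles. Assay buffer held 50 mM HEPES, 10 mM MgCl2, 0.01 mM CaCl2, 0.1 mM Na3VO4 and 0.01% BSA. IC50 was derived from activity inhibition over a compound concentration series.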

DGKα = DGKα (Homo sapiens (Human), UniProt P23743); assay: Biochemical DGK IC50 assay (ADP-Glo, lipid micelle substrate), DGKα; conditions: full length DGKα […], ATP 140 μM, DAG 80 μM; also: full length DGKα 7.5 nM
DGKα, sequence (P23743 whole entry): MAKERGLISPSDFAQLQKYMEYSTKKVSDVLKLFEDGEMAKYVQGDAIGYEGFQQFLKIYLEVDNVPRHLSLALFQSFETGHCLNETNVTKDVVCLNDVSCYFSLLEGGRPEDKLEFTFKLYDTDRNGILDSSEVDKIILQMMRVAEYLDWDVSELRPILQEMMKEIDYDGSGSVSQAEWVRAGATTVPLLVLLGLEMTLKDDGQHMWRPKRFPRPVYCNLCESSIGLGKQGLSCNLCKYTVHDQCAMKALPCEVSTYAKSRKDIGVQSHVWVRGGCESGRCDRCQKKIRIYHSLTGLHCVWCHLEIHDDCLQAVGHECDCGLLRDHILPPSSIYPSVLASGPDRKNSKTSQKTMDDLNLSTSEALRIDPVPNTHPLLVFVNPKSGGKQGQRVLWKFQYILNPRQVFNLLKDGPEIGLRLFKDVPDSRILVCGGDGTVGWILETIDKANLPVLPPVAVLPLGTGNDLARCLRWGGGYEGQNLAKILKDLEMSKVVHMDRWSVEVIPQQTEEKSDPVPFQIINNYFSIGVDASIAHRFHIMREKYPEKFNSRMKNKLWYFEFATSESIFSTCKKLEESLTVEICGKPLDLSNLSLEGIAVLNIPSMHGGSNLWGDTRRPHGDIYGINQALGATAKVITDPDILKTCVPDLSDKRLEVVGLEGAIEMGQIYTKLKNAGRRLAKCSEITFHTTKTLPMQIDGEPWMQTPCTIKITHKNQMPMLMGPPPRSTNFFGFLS
Summary of the method: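 Luminescent ADP-Glo detection followed a 1 h room-temperature reaction of full-length DGKα on DAG/PS micelles, in HEPES buffer with 10 mM MgCl2, 0.01 mM CaCl2, 0.1 mM Na3VO4, BSA and Tween-20. IC50 derived from inhibition across increasing compound concentrations.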

DGKζ, sequence (Q13574 other isoform, or with tags, fused parts or gaps): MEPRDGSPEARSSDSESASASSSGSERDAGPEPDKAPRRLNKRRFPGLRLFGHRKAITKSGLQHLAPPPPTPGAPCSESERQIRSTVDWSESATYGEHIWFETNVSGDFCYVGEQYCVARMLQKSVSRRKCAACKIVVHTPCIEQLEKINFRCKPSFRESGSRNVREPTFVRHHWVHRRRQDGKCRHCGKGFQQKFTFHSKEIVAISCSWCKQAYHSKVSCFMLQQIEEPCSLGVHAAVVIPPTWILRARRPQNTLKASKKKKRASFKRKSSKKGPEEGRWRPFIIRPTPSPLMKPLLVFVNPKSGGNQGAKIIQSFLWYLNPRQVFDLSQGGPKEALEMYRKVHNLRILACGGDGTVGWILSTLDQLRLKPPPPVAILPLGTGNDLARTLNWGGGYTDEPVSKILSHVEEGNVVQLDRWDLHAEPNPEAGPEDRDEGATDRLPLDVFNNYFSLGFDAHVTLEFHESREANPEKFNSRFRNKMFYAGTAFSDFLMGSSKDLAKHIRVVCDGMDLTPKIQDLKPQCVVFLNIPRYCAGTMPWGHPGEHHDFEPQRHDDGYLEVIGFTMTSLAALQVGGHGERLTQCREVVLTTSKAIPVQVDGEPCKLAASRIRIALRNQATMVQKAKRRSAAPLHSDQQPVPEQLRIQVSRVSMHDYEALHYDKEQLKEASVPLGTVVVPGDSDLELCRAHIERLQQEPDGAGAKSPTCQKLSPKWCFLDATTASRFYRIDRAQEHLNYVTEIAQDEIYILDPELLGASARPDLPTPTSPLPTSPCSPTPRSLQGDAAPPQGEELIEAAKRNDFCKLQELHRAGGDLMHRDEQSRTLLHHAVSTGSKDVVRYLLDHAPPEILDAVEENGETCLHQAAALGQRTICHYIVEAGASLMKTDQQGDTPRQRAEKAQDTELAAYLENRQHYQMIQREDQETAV

SMILES	IC50 (DGKζ) [nM]	IC50 (DGKα) [nM]
CC[C@H]1CN(C(C)c2ccc(CN3CCS(=O)(=O)CC3)cc2)[C@H](CC)CN1c1cc(=O)n(C)c2cn(CC#N)nc12 (stereo partly drawn) [Compound A192, 2-(7-((2S,5R)-4-(1-(4-((1,1-dioxidothiomorpholino)methyl)phenyl)ethyl)-2,5-diethylpiperazin-1-yl)-4-methyl-5-oxo-4,5-dihydro-2H-pyrazolo[4,3-b]pyridin-2-yl)acetonitrile]	579	729
CC[C@H]1CN(C(C)c2cc3c(cn2)OCC3)[C@H](CC)CN1c1cc(=O)n(C)c2cn(CC#N)nc12 (stereo partly drawn) [Compound A196, 2-(7-((2S,5R)-4-(1-(2,3-dihydrofuro[2,3-c]pyridin-5-yl)ethyl)-2,5-diethylpiperazin-1-yl)-4-methyl-5-oxo-4,5-dihydro-2H-pyrazolo[4,3-b]pyridin-2-yl)acetonitrile]	552	1020
CC[C@H]1CN(C(C)c2ccc3c(c2)OC(F)(F)O3)[C@H](CC)CN1c1cc(=O)n(C)c2cn(CC#N)nc12 (stereo partly drawn) [Compound A197, 2-(7-((2S,5R)-4-(1-(2,2-difluorobenzo[d][1,3]dioxol-5-yl)ethyl)-2,5-diethylpiperazin-1-yl)-4-methyl-5-oxo-4,5-dihydro-2H-pyrazolo[4,3-b]pyridin-2-yl)acetonitrile]	252	711
CC[C@H]1CN(C(C)c2ccc(CS(C)(=O)=O)cc2)[C@H](CC)CN1c1cc(=O)n(C)c2cn(CC#N)nc12 (stereo partly drawn) [Compound A198, 2-(7-((2S,5R)-2,5-diethyl-4-(1-(4-((methylsulfonyl)methyl)phenyl)ethyl)piperazin-1-yl)-4-methyl-5-oxo-4,5-dihydro-2H-pyrazolo[4,3-b]pyridin-2-yl)acetonitrile]	5560	91
CC[C@H]1CN(C(C)c2ccc(C(C)(F)F)nc2)[C@H](CC)CN1c1cc(=O)n(C)c2cn(CC#N)nc12 (stereo partly drawn) [Compound A199, 2-(7-((2S,5R)-4-(1-(6-(1,1-difluoroethyl)pyridin-3-yl)ethyl)-2,5-diethylpiperazin-1-yl)-4-methyl-5-oxo-4,5-dihydro-2H-pyrazolo[4,3-b]pyridin-2-yl)acetonitrile]	112	2170
CC#CCn1cc2c(n1)c(N1C[C@@H](CC)N(C(C)c3ccc4c(n3)OCC4)C[C@@H]1C)cc(=O)n2C (stereo partly drawn) [Compound A200, 2-(but-2-yn-1-yl)-7-((2S,5R)-4-(1-(2,3-dihydrofuro[2,3-b]pyridin-6-yl)ethyl)-5-ethyl-2-methylpiperazin-1-yl)-4-methyl-2,4-dihydro-5H-pyrazolo[4,3-b]pyridin-5-one]	991	< 23.3
CC[C@H]1CN(C(C)c2ccc(OC3CC3)cn2)[C@H](CC)CN1c1cc(=O)n(C)c2cn(CC#N)nc12 (stereo partly drawn) [Compound A201, 2-(7-((2S,5R)-4-(1-(5-cyclopropoxypyridin-2-yl)ethyl)-2,5-diethylpiperazin-1-yl)-4-methyl-5-oxo-4,5-dihydro-2H-pyrazolo[4,3-b]pyridin-2-yl)acetonitrile]	123	43
CC[C@H]1CN(C(C)c2ccc(C(=O)N3CCC(OC)C3)cc2)[C@H](CC)CN1c1cc(=O)n(C)c2cn(CC#N)nc12 (stereo partly drawn) [Compound A202, 2-(7-((2S,5R)-2,5-diethyl-4-(1-(4-(3-methoxypyrrolidine-1-carbonyl)phenyl)ethyl)piperazin-1-yl)-4-methyl-5-oxo-4,5-dihydro-2H-pyrazolo[4,3-b]pyridin-2-yl)acetonitrile]	3210	352
CC[C@H]1CN(C(C)c2ccc(COC)cc2)[C@H](CC)CN1c1cc(=O)n(C)c2cn(CC#N)nc12 (stereo partly drawn) [Compound A205, 2-(7-((2S,5R)-2,5-diethyl-4-(1-(4-(methoxymethyl)phenyl)ethyl)piperazin-1-yl)-4-methyl-5-oxo-4,5-dihydro-2H-pyrazolo[4,3-b]pyridin-2-yl)acetonitrile]	142	215
